Where two headings read alike, the source gives them in different places.
Assays:
ZIKV NS5 RdRp = biological target: T1, ZIKV NS5 RdRp (Zika virus, UniProt Q32ZE1); type: biochemical; details: analog triphosphates against ZIKV NS5 RdRp
T1 construct: activity of select analog triphosphates against the ZIKV NS5 RdRp

[1] = Cytotoxicity in Vero cells (XTT); type: cell-based, African green monkey; details: African green monkey
Protocol: (§1) Vero cells were passaged in DMEM medium in T-75 flasks prior to use in the antiviral assay. On the day preceding the assay, the cells were split 1:2 to assure they were in exponential growth phase at the time of infection. The cells were resuspended at […] cells per well in tissue culture medium and added to flat bottom microtiter plates in a volume of […]. The plates were incubated at 37° C./5% CO2 overnight to allow for cell adherence. Separately, Zika virus was titrated in LLCMK2 cells to define the inoculum for use in the antiviral assay. Virus was diluted in DMEM medium such that the amount of virus added to each well in a volume of […] was the amount determined to achieve 85 to 95% cell killing at 5 days post-infection. Following incubation test plates were stained with XTT dye. XTT solution was prepared daily as a stock solution of 1 mg/mL in RPM11640. PMS solution was prepared at 0.15 mg/mL in PBS and stored in the dark at −20° C. XTT/PMS stock was prepared immediately before use by adding […] of PMS per mL of XTT solution. Fifty microliters of XTT/PMS was added to each well of the plate, and the plate was reincubated for 4 hours at 37° C. Plates were sealed with adhesive plate sealers ad shaken gently to mix the soluble formazan product, and the plate was read spectrophotometrically read 450/650 nm with a Molecular Devices Vmax plate reader. The raw data was collected from Softmax Pro and imported into a Microsoft Excel XLfit4 spreadsheet for analysis using four parameter curve fit calculations.

ZIKV [2] = assay: ZIKV infectious (cytoprotection, XTT) assay; type: cell-based, Zika virus; details: read-out: ZIKV EC50
Protocol: as §1

ZIKV [3] = assay: ZIKV infectious (cytoprotection, XTT) assay; type: cell-based; details: Zika virus
Vero cells = assay: Cytotoxicity in Vero cells (XTT); type: cell-based, African green monkey
Protocol: as §1

DENV2 New Guinea C = assay: Anti-Dengue virus cytoprotection assay; type: cell-based, Dengue virus type 2
Protocol: Cell Preparation—BHK21 cells (Syrian golden hamster kidney cells, ATCC catalog #CCL-I 0), Vero cells (African green monkey kidney cells, ATCC catalog #CCL-81), or Huh-7 cells (human hepatocyte carcinoma) were passaged in DMEM supplemented with 10% FBS, 2 mM L-glutamine, 100 U/mL penicillin, and 100 μg/mL streptomycin in T-75 flasks prior to use in the antiviral assay. On the day preceding the assay, the cells were split 1:2 to assure they were in an exponential growth phase at the time of infection. Total cell and viability quantification was performed using a hemocytometer and Trypan Blue dye exclusion. Cell viability was greater than 95% for the cells to be utilized in the assay. The cells were resuspended at 3×10^3 ([…] for Vero cells and Huh-7 cells) cells per well in tissue culture medium and added to flat bottom microtiter plates in a volume of 100 μL. The plates were incubated at 37° C./5% CO2 overnight to allow for cell adherence.
Virus Preparation—The Dengue virus type 2 New Guinea C strain was obtained from ATCC (catalog #VR-1584) and was grown in LLC-MK2 (Rhesus monkey kidney cells; catalog #CCL-7.1) cells for the production of stock virus pools. An aliquot of virus pretitered in BHK21 cells was removed from the freezer (−80° C.) and allowed to thaw slowly to room temperature in a biological safety cabinet. Virus was resuspended and diluted into assay medium (DMEM supplemented with 2% heat-inactivated FBS, 2 mM L-glutamine, 100 U/mL penicillin, and 100 μg/mL streptomycin) such that the amount of virus added to each well in a volume of 100 μL was the amount determined to yield 85 to 95% cell killing at 6 days post-infection.
Plate Format—Each plate contains cell control wells (cells only), virus control wells (cells plus virus), triplicate drug toxicity wells per compound (cells plus drug only), as well as triplicate experimental wells (drug plus cells plus virus).
Efficacy and Toxicity XTT-Following incubation at 37° C. in a 5% CO2 incubator, the test plates were stained with the tetrazolium dye XTT (2,3-bis(2-methoxy-4-nitro-5-sulfophenyl)-5-[(phenylamino)carbonyl]-2H-tetrazolium hydroxide). XTT-tetrazolium was metabolized by the mitochondrial enzymes of metabolically active cells to a soluble formazan product, allowing rapid quantitative analysis of the inhibition of virus-induced cell killing by antiviral test substances. XTT solution was prepared daily as a stock of 1 mg/mL in RPMI 1640. Phenazine methosulfate (PMS) solution was prepared at 0.15 mg/mL in PBS and stored in the dark at −20° C. XTT/PMS stock was prepared immediately before use by adding 40 μL of PMS per ml of XTT solution. Fifty microliters of XTT/PMS was added to each well of the plate and the plate was reincubated for 4 hours at 37° C. Plates were sealed with adhesive plate sealers and shaken gently or inverted several times to mix the soluble formazan product and the plate was read spectrophotometrically at 450/650 nm with a Molecular Devices Vmax plate reader.
Data Analysis —Raw data was collected from the Softmax Pro 4.6 software and imported into a Microsoft Excel spreadsheet for analysis. The percent reduction in viral cytopathic effect compared to the untreated virus controls was calculated for each compound. The percent cell control value was calculated for each compound comparing the drug treated uninfected cells to the uninfected cells in medium alone.

HRV-26 = assay: Human rhinovirus assay (HRV-26); type: cell-based; details: Human rhinovirus sp., HRV26; Cell Line HeLa
[4] = test system: C#CC1(O)C(O)[C@@H](COP(=O)(O)OP(=O)(O)OP(=O)(O)O)O[C@H]1n1cnc2c(N)ncnc21; assay: purified protein, by the assay type
[5] = test system: C#CC1(O)C(O)[C@@H](COP(=O)(O)OP(=O)(O)OP(=O)(O)O)O[C@H]1n1ccc(=O)[nH]c1=O; assay: purified protein, by the assay type
[6] = test system: CC1(O)C(O)[C@@H](COP(=O)(O)OP(=O)(O)OP(=O)(O)O)O[C@H]1n1ccc(N)nc1=O; assay: purified protein, by the assay type
[7] = test system: CC1(O)C(O)[C@@H](COP(=O)(O)OP(=O)(O)OP(=O)(O)O)O[C@H]1n1cnc2c(N)ncnc21; assay: purified protein, by the assay type
[8] = test system: CC1(O)C(O)[C@@H](COP(=O)(O)OP(=O)(O)OP(=O)(O)O)O[C@H]1n1cnc2c(=O)[nH]c(N)nc21; assay: purified protein, by the assay type
[9] = test system: CC1(O)C(O)[C@@H](COP(=O)(O)OP(=O)(O)OP(=O)(O)O)O[C@H]1n1ccc(=O)[nH]c1=O; assay: purified protein, by the assay type; type: biochemical, Zika virus
[10] = Zika virus, Vero, ZIKV infectious assay, Vero cells
[11] = Zika virus, Vero, Cell Line Vero
[12] = Huh-7, Cell Line Huh-7, read-out: ZIKV EC50

T1 sequence (Q32ZE1 2517-3419): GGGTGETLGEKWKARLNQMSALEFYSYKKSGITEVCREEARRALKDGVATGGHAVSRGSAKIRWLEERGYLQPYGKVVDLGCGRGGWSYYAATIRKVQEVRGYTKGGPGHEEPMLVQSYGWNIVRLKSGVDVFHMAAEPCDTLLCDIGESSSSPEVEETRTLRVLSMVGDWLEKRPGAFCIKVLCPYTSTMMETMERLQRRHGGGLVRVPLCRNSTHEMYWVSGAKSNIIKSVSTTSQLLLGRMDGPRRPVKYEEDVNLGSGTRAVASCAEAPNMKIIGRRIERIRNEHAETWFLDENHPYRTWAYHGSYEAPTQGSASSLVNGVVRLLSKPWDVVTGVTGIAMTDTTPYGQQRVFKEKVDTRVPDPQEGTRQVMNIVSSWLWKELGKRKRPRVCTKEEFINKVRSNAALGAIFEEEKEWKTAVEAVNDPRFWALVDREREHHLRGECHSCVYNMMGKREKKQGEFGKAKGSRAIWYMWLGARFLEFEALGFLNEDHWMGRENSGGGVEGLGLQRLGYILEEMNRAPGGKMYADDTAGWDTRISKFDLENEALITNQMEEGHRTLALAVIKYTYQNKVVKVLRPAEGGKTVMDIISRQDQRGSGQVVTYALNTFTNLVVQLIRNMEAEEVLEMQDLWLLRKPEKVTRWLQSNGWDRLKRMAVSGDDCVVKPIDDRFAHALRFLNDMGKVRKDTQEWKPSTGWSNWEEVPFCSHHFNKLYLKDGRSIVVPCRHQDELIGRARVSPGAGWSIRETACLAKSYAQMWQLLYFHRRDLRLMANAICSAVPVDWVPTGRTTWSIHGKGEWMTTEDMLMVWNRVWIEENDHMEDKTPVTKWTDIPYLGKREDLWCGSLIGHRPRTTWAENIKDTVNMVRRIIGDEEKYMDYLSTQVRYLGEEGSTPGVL

With `C#CC1(O)C(O)[C@@H](COP(=O)(O)OP(=O)(O)OP(=O)(O)O)O[C@H]1n1cnc2c(N)ncnc21` (some centres unmarked) the “ZIKV Polymerase Assay Discrimination” value (ZIKV NS5 RdRp) was 5.

With `CC1(O)C(O)[C@@H](COP(=O)(O)OP(=O)(O)OP(=O)(O)O)O[C@H]1n1ccc(N)nc1=O` (some centres unmarked) the “ZIKV Polymerase Assay Discrimination” value (ZIKV NS5 RdRp) was 7.

In the case of `CC1(O)C(O)[C@@H](COP(=O)(O)OP(=O)(O)OP(=O)(O)O)O[C@H]1n1cnc2c(=O)[nH]c(N)nc21` (some centres unmarked), the “ZIKV Polymerase Assay Discrimination” value (ZIKV NS5 RdRp) is reported as 13.

In the case of `CC1(O)C(O)[C@@H](COP(=O)(O)OP(=O)(O)OP(=O)(O)O)O[C@H]1n1ccc(=O)[nH]c1=O` (some centres unmarked), the “ZIKV Polymerase Assay Discrimination” value (ZIKV NS5 RdRp) is reported as 53.

In the case of `CC1(O)C(O)[C@@H](COP(=O)(O)OP(=O)(O)OP(=O)(O)O)O[C@H]1n1cnc2c(N)ncnc21` (some centres unmarked), the “ZIKV Polymerase Assay Discrimination” value (ZIKV NS5 RdRp) is reported as 12.

For `C#CC1(O)C(O)[C@@H](COP(=O)(O)OP(=O)(O)OP(=O)(O)O)O[C@H]1n1ccc(=O)[nH]c1=O` (some centres unmarked), the “ZIKV Polymerase Assay Discrimination” value (ZIKV NS5 RdRp) was 5.

`C#CC1(O)C(O)[C@@H](CO)O[C@H]1n1ccc2c(N)ncnc21` (some centres unmarked) gave a CC50 at 5 days [1] of 35.4 µM and an EC50 (ZIKV [2]; [10]) of 0.34 µM.

For `CC1(O)C(O)[C@@H](CO)O[C@H]1n1ccc(N)nc1=O` (some centres unmarked), the CC50 at 5 days [1] was 9.57 µM and the EC50 (ZIKV [2]; [10]) was 0.13 µM.

In the case of `CC1(O)C(O)[C@@H](CO)O[C@H]1n1cnc2c(=O)[nH]c(N)nc21` (some centres unmarked), the CC50 at 5 days [1] is reported as greater than 100 µM and the EC50 (ZIKV [2]; [10]) is reported as 7.23 µM.

With `CC(C)(C)C(=O)OCOP(=O)(OCOC(=O)C(C)(C)C)OC[C@H]1O[C@@H](n2ccc(=O)[nH]c2=O)C(C)(O)C1O` (some centres unmarked) the CC50 at 5 days [1] was 26.4 µM and the EC50 (ZIKV [2]; [10]) was 3.57 µM.

Compound `C#C[C@@]1(O)[C@H](O)[C@@H](CO)O[C@H]1n1ccc(=O)[nH]c1=O` has an EC50 (ZIKV [2]; [11]) greater than 100 µM and an EC50 (ZIKV [3]; [12]) greater than 100 µM.

In the case of `C#C[C@@]1(O)[C@H](O)[C@@H](CO)O[C@H]1n1cc(F)c(=O)[nH]c1=O`, the EC50 (ZIKV [3]; [12]) is reported as greater than 100 µM.

Compound `C#C[C@@]1(O)[C@H](O)[C@@H](CO[P@@](=O)(N[C@@H](C)C(=O)OC(C)C)Oc2ccccc2)O[C@H]1n1cc(F)c(=O)[nH]c1=O` has an EC50 (ZIKV [2]; Zika virus, Vero) greater than 100 µM and an EC50 (ZIKV [3]; Huh-7, read-out: ZIKV EC50) of 13 µM.

Work on `C#CC1(O)C(O)[C@@H](COP(=O)(OCOC(=O)C(C)(C)C)OCOC(=O)C(C)(C)C)O[C@H]1n1cc(F)c(=O)[nH]c1=O` (some centres unmarked) yielded an EC50 (ZIKV [3]; [12]) of 5.3 µM.

`CC1(O)C(O)[C@@H](CO)O[C@H]1n1cnc2c(N)ncnc21` (some centres unmarked) [drawing 675] gave a CC50 (Vero cells) greater than 100 µM and an EC50 (ZIKV [2]; ZIKV infectious assay, Vero cells) of 2.46 µM.

With `CC1(O)C(O)[C@@H](CO)O[C@H]1n1cnc2c(N)ncnc21` (some centres unmarked) [drawing 678] the CC50 at 5 days [1] was greater than 100 µM and the EC50 (ZIKV [2]; [10]) was 2.75 µM.

Work on `C#CC1(O)C(O)[C@@H](COP(=O)(OCOC(=O)C(C)(C)C)OCOC(=O)C(C)(C)C)O[C@H]1n1ccc(=O)[nH]c1=O` (some centres unmarked) [drawing 679] yielded a CC50 at 5 days [1] of 11 µM and an EC50 (ZIKV [2]; [10]) of 1.06 µM.

For `C#C[C@@]1(O)[C@H](O)[C@@H](CO[P@@](=O)(N[C@@H](C)C(=O)OC(C)C)Oc2ccccc2)O[C@H]1n1ccc2c(N)ncnc21` [drawing 740], the EC50 (DENV2 New Guinea C; DENV2, BHK-21, read-out: DENV2 New Guinea C EC50) was 27.7 µM.

`C#C[C@@]1(O)[C@H](O)[C@@H](CO)O[C@H]1n1cnc2cnc(N)nc21` [drawing 741] showed an EC50 (DENV2 New Guinea C; DENV2, Vero, read-out: DENV2 New Guinea C EC50) greater than 100 µM.

Compound `C#C[C@@]1(O)[C@H](O)[C@@H](CO[P@@](=O)(N[C@@H](C)C(=O)OC(C)C)Oc2ccccc2)O[C@H]1n1ccc(=O)[nH]c1=O` [drawing 742] has an EC50 (HRV-26) of 3.22 µM.

`C#C[C@@]1(O)[C@H](O)[C@@H](CO)O[C@H]1n1cnc2cnc(N)nc21` [drawing 743] showed an EC50 (HRV-26) greater than 100 µM.

For `C#C[C@@]1(O)[C@H](O)[C@@H](CO[P@@](=O)(N[C@@H](C)C(=O)OC(C)C)Oc2ccccc2)O[C@H]1n1ccc2c(N)ncnc21` [drawing 744], the EC50 (ZIKV [3]; Huh-7, read-out: ZIKV EC50) was 0.001 µM.

With `C#C[C@@]1(O)[C@H](O)[C@@H](CO[P@@](=O)(N[C@@H](C)C(=O)OC(C)C)Oc2ccccc2)O[C@H]1n1ccc(=O)[nH]c1=O` [drawing 746] the EC50 (ZIKV [2]; Zika virus, Vero) was greater than 100 µM and the EC50 (ZIKV [3]; Huh-7, read-out: ZIKV EC50) was 0.5 µM.

Work on `C#C[C@@]1(O)[C@H](O)[C@@H](CO)O[C@H]1n1cnc2cnc(N)nc21` [drawing 747] yielded an EC50 (ZIKV [3]; HeLa, Cell Line HeLa, read-out: ZIKV EC50) greater than 100 µM.

Compound `C#C[C@@]1(O)[C@H](O)[C@@H](CO)O[C@H]1n1cnc2cnc(N)nc21` [drawing 751] has an EC50 (ZIKV [2]; [11]) greater than 100 µM.

Compound ZIKV NS5 RdRp (Zika virus) has a Km [4] of 1.26 µM, a Km [5] of 6.59 µM and a Km [6] of 1.45 µM. It also gave a Km [7] of 3.03 µM, a Km [8] of 2.82 µM and a Km [9] of 72.82 µM.
